Results reported in ChEMBL document CHEMBL1201862, “PubChem BioAssay data set” (2004).
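These data come from cells grown in 96-well plates and exposed to compound for 48 hours at five concentrations. At the GI50, growth is halved.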 Activity calls are given as the source filed them. Cut-off read from the data, not from the text of the source: active = GI50 up to about 1.1 µM and inactive = higher.

Tests used:
Test in all cases: NCI-60 cell line screen, 48 h
[1] = system: T47D
[2] = system: PC-3
[3] = system: NCI-H522
[4] = system: HOP-92
[5] = system: SK-MEL-2
[6] = system: OVCAR-8
[7] = system: SK-OV-3
[8] = system: MDA-N
[9] = system: NCI-H23
[10] = system: CAKI-1
[11] = system: NCI-H460
[12] = system: BT-549
[13] = system: UACC-257
[14] = system: SF-268
[15] = system: MOLT-4
[16] = system: LOX IMVI
[17] = system: A498
[18] = system: SNB-19
[19] = system: COLO 205
[20] = system: MDA-MB-231

For CC(C)Cn1cnc2c(Sc3c([N+](=O)[O-])ncn3C)nc(N)nc21, the GI50 [1] was 30.4 µM (inactive), the GI50 [2] was 26.1 µM (inactive) and the GI50 [3] was 26.3 µM (inactive). The GI50 [4] was 14.9 µM (inactive), the GI50 [5] was 22 µM (inactive) and the GI50 [6] was > 61.4 µM (inactive). For the same molecule, the GI50 [7] was > 100 µM (inactive), the GI50 [8] was 36.1 µM (inactive) and the GI50 [9] was > 65.5 µM (inactive). For the same molecule, the GI50 [10] was 22.8 µM (inactive), the GI50 [11] was > 63 µM (inactive) and the GI50 [12] was 42.5 µM (inactive). For the same molecule, the GI50 [13] was > 49.3 µM (inactive), the GI50 [14] was > 100 µM (inactive) and the GI50 [15] was > 42.2 µM (inactive). The GI50 [16] was > 59.8 µM (inactive), the GI50 [17] was > 100 µM (inactive) and the GI50 [18] was > 100 µM (inactive). For the same molecule, the GI50 [19] was > 25.6 µM (inactive) and the GI50 [20] was 64.4 µM (inactive).

CNC(=O)Nn1c(SC)nc2ccccc21 was tested, and the GI50 [1] was > 100 µM (inactive), the GI50 [2] was > 100 µM (inactive) and the GI50 [3] was > 100 µM (inactive). The GI50 [4] was > 100 µM (inactive), the GI50 [5] was > 100 µM (inactive) and the GI50 [6] was > 100 µM (inactive). The GI50 [7] was > 100 µM (inactive), the GI50 [8] was > 100 µM (inactive) and the GI50 [9] was > 100 µM (inactive). For the same molecule, the GI50 [10] was > 100 µM (inactive), the GI50 [11] was > 100 µM (inactive) and the GI50 [12] was > 100 µM (inactive). For the same molecule, the GI50 [13] was > 100 µM (inactive), the GI50 [14] was > 100 µM (inactive) and the GI50 [15] was > 100 µM (inactive). The GI50 [16] was > 100 µM (inactive), the GI50 [17] was > 100 µM (inactive) and the GI50 [18] was > 100 µM (inactive). The GI50 [19] was > 100 µM (inactive) and the GI50 [20] was > 100 µM (inactive).

ClCCCCCc1c2nc(c(CCCCCCl)c3ccc([nH]3)c(CCCCCCl)c3nc(c(CCCCCCl)c4ccc1[nH]4)C=C3)C=C2 was tested, and the GI50 [1] was > 100 µM (inactive), the GI50 [2] was > 100 µM (inactive) and the GI50 [3] was > 100 µM (inactive). The GI50 [4] was > 100 µM (inactive), the GI50 [5] was > 100 µM (inactive) and the GI50 [6] was > 100 µM (inactive). The GI50 [7] was > 100 µM (inactive), the GI50 [8] was > 100 µM (inactive) and the GI50 [9] was > 100 µM (inactive). For the same molecule, the GI50 [10] was > 100 µM (inactive), the GI50 [11] was > 100 µM (inactive) and the GI50 [12] was > 100 µM (inactive). For the same molecule, the GI50 [13] was > 100 µM (inactive), the GI50 [14] was > 100 µM (inactive) and the GI50 [15] was > 100 µM (inactive). The GI50 [16] was > 100 µM (inactive), the GI50 [17] was > 100 µM (inactive) and the GI50 [18] was > 100 µM (inactive). For the same molecule, the GI50 [19] was > 100 µM (inactive) and the GI50 [20] was > 100 µM (inactive).

In the case of CN1c2ccccc2C2c3c(O)ccc(O)c3C=C([N+](=O)[O-])C21 (stereo not given), the GI50 [1] is reported as 0.324 µM (active), the GI50 [2] is reported as 0.388 µM (active) and the GI50 [3] is reported as 0.0621 µM (active). The GI50 [4] was 2.28 µM (inactive), the GI50 [5] was 1.98 µM (inactive) and the GI50 [6] was 0.286 µM (active). For the same molecule, the GI50 [7] was 3.72 µM (inactive), the GI50 [8] was 0.69 µM (active) and the GI50 [9] was 1.69 µM (inactive). For the same molecule, the GI50 [10] was 2.13 µM (inactive), the GI50 [11] was 1.9 µM (inactive) and the GI50 [12] was 5.36 µM (inactive). The GI50 [13] was 0.19 µM (active), the GI50 [14] was 0.388 µM (active) and the GI50 [15] was 0.424 µM (active). For the same molecule, the GI50 [16] was 0.407 µM (active), the GI50 [17] was 1.79 µM (inactive) and the GI50 [18] was 0.619 µM (active). The GI50 [19] was 0.653 µM (active) and the GI50 [20] was 0.656 µM (active).

For Cc1cc(CS(=O)(=O)/C=C/c2ccccc2[N+](=O)[O-])c(CS(=O)(=O)/C=C/c2ccccc2[N+](=O)[O-])cc1C, the GI50 [1] was > 100 µM (inactive), the GI50 [2] was 42.4 µM (inactive) and the GI50 [3] was 23.7 µM (inactive). For the same molecule, the GI50 [4] was 33.2 µM (inactive), the GI50 [5] was 15.4 µM (inactive) and the GI50 [6] was 24.1 µM (inactive). For the same molecule, the GI50 [7] was 24 µM (inactive), the GI50 [8] was > 27.9 µM (inactive) and the GI50 [9] was 17.7 µM (inactive). The GI50 [10] was 35.7 µM (inactive), the GI50 [11] was 33.8 µM (inactive) and the GI50 [12] was 7.41 µM (inactive). The GI50 [13] was > 65 µM (inactive), the GI50 [14] was 25.4 µM (inactive) and the GI50 [15] was 70.1 µM (inactive). The GI50 [16] was 24.3 µM (inactive), the GI50 [17] was 26.5 µM (inactive) and the GI50 [18] was 28.1 µM (inactive). For the same molecule, the GI50 [19] was > 100 µM (inactive) and the GI50 [20] was 16.4 µM (inactive).

In the case of Cc1nc2sccn2c1/C=C1/C(=O)Nc2cccc(Cl)c21, the GI50 [1] is reported as 38.6 µM (inactive), the GI50 [2] is reported as 80.7 µM (inactive) and the GI50 [3] is reported as 45.8 µM (inactive). For the same molecule, the GI50 [4] was > 100 µM (inactive), the GI50 [5] was > 100 µM (inactive) and the GI50 [6] was > 100 µM (inactive). The GI50 [7] was > 100 µM (inactive), the GI50 [8] was 12.6 µM (inactive) and the GI50 [9] was > 100 µM (inactive). For the same molecule, the GI50 [10] was > 100 µM (inactive), the GI50 [11] was 92 µM (inactive) and the GI50 [12] was > 100 µM (inactive). For the same molecule, the GI50 [13] was > 100 µM (inactive), the GI50 [14] was > 100 µM (inactive) and the GI50 [15] was > 100 µM (inactive). For the same molecule, the GI50 [16] was > 100 µM (inactive), the GI50 [17] was 87.3 µM (inactive) and the GI50 [18] was > 100 µM (inactive). The GI50 [19] was 71.4 µM (inactive) and the GI50 [20] was 50.4 µM (inactive).

For Cn1c(=O)c2c(nc3n(CCCCl)c(=O)ccn23)n(C)c1=O, the GI50 [1] was > 100 µM (inactive), the GI50 [2] was > 100 µM (inactive) and the GI50 [3] was > 100 µM (inactive). For the same molecule, the GI50 [4] was > 100 µM (inactive), the GI50 [5] was > 100 µM (inactive) and the GI50 [6] was > 100 µM (inactive). The GI50 [7] was > 100 µM (inactive), the GI50 [8] was > 100 µM (inactive) and the GI50 [9] was > 100 µM (inactive). For the same molecule, the GI50 [10] was > 100 µM (inactive), the GI50 [11] was > 100 µM (inactive) and the GI50 [12] was > 100 µM (inactive). The GI50 [13] was > 100 µM (inactive), the GI50 [14] was > 100 µM (inactive) and the GI50 [15] was > 100 µM (inactive). The GI50 [16] was > 100 µM (inactive), the GI50 [17] was > 100 µM (inactive) and the GI50 [18] was > 100 µM (inactive). The GI50 [19] was > 100 µM (inactive) and the GI50 [20] was > 100 µM (inactive).
